Legend:
Experiment in all cases: isothermal titration calorimetry, single-site fit
Assay type in all cases: binding
TRM6-TRM61 holoenzyme [1] = molecular target: T1, TRM6-TRM61 holoenzyme (Saccharomyces cerevisiae, UniProt P46959)
T1 construct: gene GCD14; full-length TRM6 (478 residues) and TRM61 co-expressed from pETDuet-TRM6-TRM61 in bacteria; Ni-NTA and gel filtration; with tRNA (adenine(58)-N(1))-methyltransferase non-catalytic subunit TRM6

TRM6-TRM61 holoenzyme [2] = molecular target: T2, TRM6-TRM61 holoenzyme (Saccharomyces cerevisiae, UniProt P46959, F140A)
T2 construct: gene GCD14; full-length TRM6 (478 residues) and TRM61 co-expressed from pETDuet-TRM6-TRM61 in bacteria; Ni-NTA and gel filtration; with tRNA (adenine(58)-N(1))-methyltransferase non-catalytic subunit TRM6
Description: (§1) isothermal titration calorimetry, single-site fit on TRM6-TRM61 holoenzyme

TRM6-TRM61 holoenzyme [3] = molecular target: T3, TRM6-TRM61 holoenzyme (Saccharomyces cerevisiae, UniProt P46959, F124A)
T3 construct: gene GCD14; full-length TRM6 (478 residues) and TRM61 co-expressed from pETDuet-TRM6-TRM61 in bacteria; Ni-NTA and gel filtration; with tRNA (adenine(58)-N(1))-methyltransferase non-catalytic subunit TRM6
Description: as §1

TRM6-TRM61 holoenzyme [4] = molecular target: T4, TRM6-TRM61 holoenzyme (Saccharomyces cerevisiae, UniProt P46959, V169A)
T4 construct: gene GCD14; full-length TRM6 (478 residues) and TRM61 co-expressed from pETDuet-TRM6-TRM61 in bacteria; Ni-NTA and gel filtration; with tRNA (adenine(58)-N(1))-methyltransferase non-catalytic subunit TRM6
Description: as §1

T1 sequence (P46959 whole entry): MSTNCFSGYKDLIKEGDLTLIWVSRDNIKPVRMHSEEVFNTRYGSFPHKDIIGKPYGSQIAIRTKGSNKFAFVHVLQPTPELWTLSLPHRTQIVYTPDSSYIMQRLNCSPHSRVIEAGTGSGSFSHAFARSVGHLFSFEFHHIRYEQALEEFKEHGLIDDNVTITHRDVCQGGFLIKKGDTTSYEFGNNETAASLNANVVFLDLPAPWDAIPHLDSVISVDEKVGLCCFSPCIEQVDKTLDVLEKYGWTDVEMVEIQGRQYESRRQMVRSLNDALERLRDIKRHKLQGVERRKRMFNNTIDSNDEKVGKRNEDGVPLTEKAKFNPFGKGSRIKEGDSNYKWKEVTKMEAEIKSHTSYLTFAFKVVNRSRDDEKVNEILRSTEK
T1 sequence (P41814 whole entry partner): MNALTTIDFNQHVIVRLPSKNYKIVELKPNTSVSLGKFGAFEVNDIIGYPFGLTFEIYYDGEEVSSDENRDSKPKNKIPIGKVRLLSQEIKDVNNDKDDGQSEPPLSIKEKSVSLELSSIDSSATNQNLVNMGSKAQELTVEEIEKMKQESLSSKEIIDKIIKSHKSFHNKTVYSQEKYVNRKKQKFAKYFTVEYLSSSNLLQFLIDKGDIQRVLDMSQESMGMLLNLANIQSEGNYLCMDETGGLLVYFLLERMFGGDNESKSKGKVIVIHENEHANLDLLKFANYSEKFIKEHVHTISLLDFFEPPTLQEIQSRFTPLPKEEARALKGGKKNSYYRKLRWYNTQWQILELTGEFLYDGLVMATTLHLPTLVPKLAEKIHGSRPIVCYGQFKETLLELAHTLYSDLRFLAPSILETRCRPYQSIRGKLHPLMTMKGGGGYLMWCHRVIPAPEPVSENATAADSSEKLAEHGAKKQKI
T3 sequence (P46959 whole entry F124A): as the sequence (P46959 whole entry) above, with F124A counted along it
T3 sequence (P41814 whole entry partner): as the sequence (P41814 whole entry partner) above
T4 sequence (P46959 whole entry V169A): as the sequence (P46959 whole entry) above, with V169A counted along it
T4 sequence (P41814 whole entry partner): as the sequence (P41814 whole entry partner) above
T2 sequence (P46959 whole entry F140A): as the sequence (P46959 whole entry) above, with F140A counted along it
T2 sequence (P41814 whole entry partner): as the sequence (P41814 whole entry partner) above

Kd (TRM6-TRM61 holoenzyme [1]): 44.3 ± 4.55 µM
Kd (TRM6-TRM61 holoenzyme [2]): 787 ± 64.5 µM
Kd (TRM6-TRM61 holoenzyme [3]): 317 ± 34.7 µM
Kd (TRM6-TRM61 holoenzyme [4]): 409 ± 74.7 µM
SMILES: C[S+](CC[C@H](N)C(=O)O)C[C@H]1O[C@@H](n2cnc3c(N)ncnc32)[C@H](O)[C@@H]1O (stereo partly shown) [SAM]
